# Reference: patent publication US10517889B2, “Modulators of SMAD7 expression” (Ionis Pharmaceuticals, Inc., priority 2017, dated 2019)
# Values joined by “and” are separate entries in the source; they are usually repeats but may differ in a detail not shown here. Identical values can stand only once.
# Assays:
# [1] = tested on: human SMAD7 mRNA; assay: Dose-dependent inhibition of human SMAD7 mRNA expression in A431 cells, oligonucleotide added without transfection (Example 5, Study 1); type: cell-based; details: approximately 48 hours; for IC50: SMAD7 mRNA
# Summary of the method: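 A431 cells dosed with antisense oligonucleotide at 0.08–20.00 μM by free uptake immediately after plating, 48 h at 37° C. SMAD7 mRNA quantified by qRT-PCR (primer probe set RTS5062), normalised to RiboGreen total RNA. Values are % inhibition versus untreated cells.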
# [2] = Plasma chemistry markers after subcutaneous administration in CD-1 mice (Example 6); type: in vivo; details: CD-1 mice plasma at day 46; 50 mg/kg subcutaneously twice a week for 7 weeks
# Description: CD-1® mice (Charles River, Mass.) are a multipurpose mice model, frequently utilized for safety and efficacy testing. The mice were treated with Ionis human SMAD7 antisense oligonucleotides selected from studies described above and evaluated.
# Groups of 8-9 week old male CD-1 mice were injected subcutaneously twice a week for 7 weeks with 50 mg/kg of Ionis oligonucleotides (100 mg/kg/week dose). Each group contained 4 mice. One group of male CD-1 mice was injected subcutaneously twice a week for 7 weeks with PBS. […]
# [3] = Organ weights after subcutaneous administration in CD-1 mice (Example 6); type: in vivo; details: end of study, 50 mg/kg subcutaneously twice a week for 7 weeks
# Description: (§1) Groups of 8-9 week old male CD-1 mice were injected subcutaneously twice a week for 7 weeks with 50 mg/kg of Ionis oligonucleotides (100 mg/kg/week dose). Each group contained 4 mice. One group of male CD-1 mice was injected subcutaneously twice a week for 7 weeks with PBS. Plasma was collected for analysis on day 28.
# Ionis SMAD7 oligonucleotides that caused any changes in organ weights outside the expected range for antisense oligonucleotides were excluded from further studies.
# [4] = Hematology assays after subcutaneous administration in CD-1 mice (Example 6); type: in vivo; design: RBC / Eosinophils / Monocytes: unit not given here; details: 50 mg/kg subcutaneous twice weekly for 7 weeks; for Basophils: n.d. = below detection levels
# Description: as §1
# Blood obtained from all mouse groups was measured by an ADVIA2120i hematology analyzer (Siemens, USA) for measurements of the various blood cells, as well as other hematology markers.
# [5] = Organ weights after oral gavage in beagle dogs (Example 12); details: 200 mg oral gavage for 4 weeks, day 30
# Description: (§2) Groups of 24-25 week old male beagle dogs were administered 200 mg Ionis human SMAD7 oligonucleotide by oral gavage once a week for 4 weeks. There were 4 animals per group. A control group of dogs received oral administration of distilled water. Dogs were sacrificed on day 30 approximately 48 hours after the final dose and organs and plasma were harvested for further analysis.
# [6] = Plasma chemistry markers after oral gavage in beagle dogs (Example 12); details: 200 mg oral gavage for 4 weeks, plasma at day 30
# Description: The study was conducted to evaluate the tolerability and pharmacodynamics of select human SMAD7 antisense oligonucleotides in beagle dogs following 4 weeks of treatment. The dogs were administered oligonucleotides by oral gavage.
# as §2
# To evaluate the effect of Ionis SMAD7 oligonucleotides on liver and kidney function, approximately 1.5 mL of blood samples were collected and put into tubes without anticoagulant for serum separation. The tubes were kept at room temperature for a minimum of 90 min and then centrifuged (approximately 3,000 rpm for 10 min) to obtain serum. Plasma levels of transaminases, albumin, bilirubin, and BUN were measured using an automated clinical chemistry analyzer (Toshiba 200FR Neo chemistry analyzer, Toshiba Co., Japan).
# [7] = tested on: human SMAD7 mRNA; assay: Dose-dependent inhibition of human SMAD7 mRNA expression in Hep3B cells (Example 3, Study 1 and 2); type: cell-based; details: electroporation; for % inhibition of SMAD7 mRNA expression: approximately 16 hours; for IC50: Study 2 (740-20000 nM)
# Summary of the method: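 Hep3B cells, 20,000 per well, electroporated with antisense oligonucleotide at 0.31, 1.25, 5.00 or 20.00 μM (first series) or 0.74, 2.22, 6.67 or 20.00 μM (second series). After ~16 h, SMAD7 mRNA measured by RT-qPCR (RTS5062), normalised to RIBOGREEN total RNA. Percent inhibition vs untreated cells; IC50 derived.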
# [8] = 740 nM, Study 2, relative to untreated control cells
substance,measurement,setting,value
"790615 (CCAATGAGAATGCTTC; 3-10-3 cEt gapmer, further chemistry not given here) [compound 790615]",% inhibition of SMAD7 mRNA expression,[1]; 0.08 μM,14%
same,% inhibition of SMAD7 mRNA expression,[1]; 0.25 μM,43%
same,% inhibition of SMAD7 mRNA expression,[1]; 0.74 μM,55%
same,% inhibition of SMAD7 mRNA expression,[1]; 2.22 μM,63%
same,% inhibition of SMAD7 mRNA expression,[1]; 6.67 μM,70%
same,% inhibition of SMAD7 mRNA expression,[1]; 20.00 μM,75%
same,IC50,[1],700 nM
same,ALT,[2],65 IU/L
same,AST,[2],97 IU/L
same,Albumin,[2],2.2 g/dL
same,BUN,[2],22 mg/dL
same,"Organ weights, Kidneys",[3],0.6 g
same,"Organ weights, Liver",[3],2.0 g
same,"Organ weights, Spleen",[3],0.2 g
same,Eosinophils,[4],2.5
same,Hematocrit,[4],46.2%
same,Hemoglobin,[4],15.2 g/dL
same,Lymphocytes,[4],82.8%
same,MCH,[4],14.7 pg
same,MCHC,[4],32.8 g/dL
same,MCV,[4],44.8 fL
same,Monocytes,[4],5.0
same,Neutrophils,[4],9.7%
same,RBC,[4],10.3
same,Reticulocytes,[4],3.5%
same,WBC,[4],10.5 10^3/μL
same,platelets,[4],1055.8 10^3/μL
same,Basophils,[4],0.1 10^3/μL
same,Kidney weight (% of control),[5],94 % of control
same,Liver weight (% of control),[5],85 % of control
same,Spleen weight (% of control),[5],106 % of control
same,ALT (% of control),[6],118 % of control
same,AST (% of control),[6],147 % of control
same,Albumin (% of control),[6],98 % of control
same,BUN (% of control),[6],108 % of control
same,Bilirubin (% of control),[6],102 % of control
"798781 (CGTAAGATTCACAGCA; 3-10-3 cEt gapmer, further chemistry not given here) [compound 798781]",% inhibition of SMAD7 mRNA expression,[7]; [8],46%
same,% inhibition of SMAD7 mRNA expression,"[7]; 2220 nM, Study 2",64%
same,% inhibition of SMAD7 mRNA expression,"[7]; 6670.0 nM, Study 2",81%
same,% inhibition of SMAD7 mRNA expression,"[7]; 20000.0 nM, Study 2",87%
same,IC50,[7],2000 nM
same,% inhibition of SMAD7 mRNA expression,[1]; 0.08 μM,23%
same,% inhibition of SMAD7 mRNA expression,[1]; 0.25 μM,34%
same,% inhibition of SMAD7 mRNA expression,[1]; 0.74 μM,41%
same,% inhibition of SMAD7 mRNA expression,[1]; 2.22 μM,41%
same,% inhibition of SMAD7 mRNA expression,[1]; 6.67 μM,57%
same,% inhibition of SMAD7 mRNA expression,[1]; 20.00 μM,62%
same,IC50,[1],3600 nM
same,ALT,[2],40 IU/L
same,AST,[2],66 IU/L
same,Albumin,[2],2.2 g/dL
same,BUN,[2],26 mg/dL
same,"Organ weights, Kidneys",[3],0.6 g
same,"Organ weights, Liver",[3],2.3 g
same,"Organ weights, Spleen",[3],0.1 g
same,Eosinophils,[4],2.4
same,Hematocrit,[4],42.3%
same,Hemoglobin,[4],13.8 g/dL
same,Lymphocytes,[4],73.7%
same,MCH,[4],14.9 pg
same,MCHC,[4],32.6 g/dL
same,MCV,[4],45.8 fL
same,Monocytes,[4],5.2
same,Neutrophils,[4],18.8%
same,RBC,[4],9.3
same,Reticulocytes,[4],3.3%
same,WBC,[4],4.9 10^3/μL
same,platelets,[4],867.3 10^3/μL
same,Kidney weight (% of control),[5],86 % of control
same,Liver weight (% of control),[5],91 % of control
same,Spleen weight (% of control),[5],102 % of control
same,ALT (% of control),[6],115 % of control
same,AST (% of control),[6],114 % of control
same,Albumin (% of control),[6],101 % of control
same,BUN (% of control),[6],104 % of control
same,Bilirubin (% of control),[6],114 % of control
"829994 (GGAGGCAGGGCCGCGA; 3-10-3 cEt gapmer, further chemistry not given here) [compound 829994]",% inhibition of SMAD7 mRNA expression,[7]; [8],25%
same,% inhibition of SMAD7 mRNA expression,"[7]; 2220 nM, Study 2",54%
same,% inhibition of SMAD7 mRNA expression,"[7]; 6670.0 nM, Study 2",69%
same,% inhibition of SMAD7 mRNA expression,"[7]; 20000.0 nM, Study 2",80%
same,IC50,[7],1000 nM
same,ALT,[2],65 IU/L
same,AST,[2],90 IU/L
same,Albumin,[2],2.9 g/dL
same,BUN,[2],25 mg/dL
same,"Organ weights, Kidneys",[3],0.7 g
same,"Organ weights, Liver",[3],2.6 g
same,"Organ weights, Spleen",[3],0.3 g
same,Eosinophils,[4],1.3
same,Hematocrit,[4],36.6%
same,Hemoglobin,[4],12.0 g/dL
same,Lymphocytes,[4],79.4%
same,MCH,[4],15.5 pg
same,MCHC,[4],32.7 g/dL
same,MCV,[4],47.3 fL
same,Monocytes,[4],3.0
same,Neutrophils,[4],16.4%
same,RBC,[4],7.7
same,Reticulocytes,[4],3.7%
same,WBC,[4],5.0 10^3/μL
same,platelets,[4],841.3 10^3/μL
"830025 (antisense TTTGTAAATCGAAAGC; 3-10-3 cEt gapmer, further chemistry not given here) [compound 830025]",% inhibition of SMAD7 mRNA expression,[7]; [8],42%
same,% inhibition of SMAD7 mRNA expression,"[7]; 2220 nM, Study 2",58%
same,% inhibition of SMAD7 mRNA expression,"[7]; 6670.0 nM, Study 2",72%
same,% inhibition of SMAD7 mRNA expression,"[7]; 20000.0 nM, Study 2",88%
same,IC50,[7],< 700 nM
same,% inhibition of SMAD7 mRNA expression,[1]; 0.08 μM,16%
same,% inhibition of SMAD7 mRNA expression,[1]; 0.25 μM,30%
same,% inhibition of SMAD7 mRNA expression,[1]; 0.74 μM,22%
same,% inhibition of SMAD7 mRNA expression,[1]; 2.22 μM,41%
same,% inhibition of SMAD7 mRNA expression,[1]; 6.67 μM,54%
same,% inhibition of SMAD7 mRNA expression,[1]; 20.00 μM,67%
same,IC50,[1],4700 nM
same,ALT,[2],208 IU/L
same,AST,[2],263 IU/L
same,Albumin,[2],2.5 g/dL
same,BUN,[2],25 mg/dL
same,"Organ weights, Kidneys",[3],0.6 g
same,"Organ weights, Liver",[3],2.2 g
same,"Organ weights, Spleen",[3],0.2 g
same,Eosinophils,[4],3.8
same,Hematocrit,[4],38.7%
same,Hemoglobin,[4],12.5 g/dL
same,Lymphocytes,[4],83.2%
same,MCH,[4],15.7 pg
same,MCHC,[4],32.3 g/dL
same,MCV,[4],48.8 fL
same,Monocytes,[4],3.2
same,Neutrophils,[4],9.3%
same,RBC,[4],8.0
same,Reticulocytes,[4],3.3%
same,WBC,[4],4.8 10^3/μL
same,platelets,[4],805.0 10^3/μL
same,Basophils,[4],0.6 10^3/μL
same,Kidney weight (% of control),[5],99 % of control
same,Liver weight (% of control),[5],79 % of control
same,Spleen weight (% of control),[5],87 % of control
same,ALT (% of control),[6],117 % of control
same,AST (% of control),[6],106 % of control
same,Albumin (% of control),[6],96 % of control
same,BUN (% of control),[6],93 % of control
same,Bilirubin (% of control),[6],96 % of control
"830037 (antisense CTATTGGCTGATCTGG; 3-10-3 cEt gapmer, further chemistry not given here) [compound 830037]",% inhibition of SMAD7 mRNA expression,[7]; [8],30%
same,% inhibition of SMAD7 mRNA expression,"[7]; 2220 nM, Study 2",56%
same,% inhibition of SMAD7 mRNA expression,"[7]; 6670.0 nM, Study 2",70%
same,% inhibition of SMAD7 mRNA expression,"[7]; 20000.0 nM, Study 2",87%
same,IC50,[7],3000 nM
same,% inhibition of SMAD7 mRNA expression,[1]; 0.08 μM,10%
same,% inhibition of SMAD7 mRNA expression,[1]; 0.25 μM,31%
same,% inhibition of SMAD7 mRNA expression,[1]; 0.74 μM,29%
same,% inhibition of SMAD7 mRNA expression,[1]; 2.22 μM,42%
same,% inhibition of SMAD7 mRNA expression,[1]; 6.67 μM,61%
same,% inhibition of SMAD7 mRNA expression,[1]; 20.00 μM,67%
same,IC50,[1],3400 nM
"830121 (AGAATCAAGCCCTGGC; 3-10-3 cEt gapmer, further chemistry not given here) [compound 830121]",% inhibition of SMAD7 mRNA expression,[7]; [8],37% and 54%
same,% inhibition of SMAD7 mRNA expression,"[7]; 2220 nM, Study 2",48% and 63%
same,% inhibition of SMAD7 mRNA expression,"[7]; 6670.0 nM, Study 2",69% and 79%
same,% inhibition of SMAD7 mRNA expression,"[7]; 20000.0 nM, Study 2",85% and 86%
same,IC50,[7],< 700 nM
same,% inhibition of SMAD7 mRNA expression,[1]; 0.08 μM,11%
same,% inhibition of SMAD7 mRNA expression,[1]; 0.25 μM,18%
same,% inhibition of SMAD7 mRNA expression,[1]; 0.74 μM,27%
same,% inhibition of SMAD7 mRNA expression,[1]; 2.22 μM,21%
same,% inhibition of SMAD7 mRNA expression,[1]; 6.67 μM,35%
same,% inhibition of SMAD7 mRNA expression,[1]; 20.00 μM,44%
same,IC50,[1],> 20000 nM
same,ALT,[2],198 IU/L
same,AST,[2],151 IU/L
same,Albumin,[2],1.9 g/dL
same,BUN,[2],21 mg/dL
same,"Organ weights, Kidneys",[3],0.6 g
same,"Organ weights, Liver",[3],2.4 g
same,"Organ weights, Spleen",[3],0.2 g
same,Eosinophils,[4],3.5
same,Hematocrit,[4],40.4%
same,Hemoglobin,[4],13.6 g/dL
same,Lymphocytes,[4],75.3%
same,MCH,[4],15.3 pg
same,MCHC,[4],33.6 g/dL
same,MCV,[4],45.5 fL
same,Monocytes,[4],5.1
same,Neutrophils,[4],15.8%
same,RBC,[4],8.9
same,Reticulocytes,[4],4.5%
same,WBC,[4],10.1 10^3/μL
same,platelets,[4],765.0 10^3/μL
same,Basophils,[4],0.3 10^3/μL
